Results as given in US10131652B2, “Pyrimidinyloxy benzene derivatives as herbicides” (E. I. DU PONT DE NEMOURS AND COMPANY, priority 2014, dated 2018).
Read-outs that look alike come from different tables or passages of the source.

Experiments:
Type in all cases: in vivo
[1] = system: Brazilian crabgrass (Digitaria horizontalis); experiment: Test F pre-/postemergence plant response; settings: Digitaria horizontalis, scale 0 to 100, read-out: Plant response rating, Crabgrass, Brazil
Method in brief: (§1)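 Seeds were sown in silt loam and sprayed preemergence; in parallel, plants at 2–18 cm (1- to 4-leaf) received postemergence sprays. Test chemicals were in a non-phytotoxic solvent with surfactant. After 14–21 days in the greenhouse, injury was rated visually against controls on a 0–100 scale (100 = complete control).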

[2] = system: Italian ryegrass (Lolium multiflorum); experiment: Test F pre-/postemergence plant response; settings: Lolium multiflorum, scale 0 to 100, read-out: Plant response rating, Ryegrass, Italian; for pest or weed control at 16 g/ha: 16 g ai/ha; for pest or weed control at 31 g/ha: 31 g ai/ha; for pest or weed control at 125 g/ha: 125 g ai/ha
Method in brief: as §1

[3] = system: barnyardgrass (Echinochloa crus-galli); experiment: Test F pre-/postemergence plant response; settings: Echinochloa crus-galli, scale 0 to 100, read-out: Plant response rating, Barnyardgrass
Method in brief: as §1

[4] = system: dayflower (Virginia (VA) dayflower, Commelina virginica); experiment: Test F pre-/postemergence plant response; settings: Commelina virginica, scale 0 to 100, read-out: Plant response rating, Dayflower, VA
Method in brief: as §1

[5] = system: giant foxtail (Setaria faberii); experiment: Test F pre-/postemergence plant response; settings: Setaria faberi, pre-emergence, scale 0 to 100, read-out: Plant response rating, Foxtail, Giant
Method in brief: as §1

[6] = system: lambsquarters (Chenopodium album); experiment: Test F pre-/postemergence plant response; settings: Chenopodium album, pre-emergence, scale 0 to 100, read-out: Plant response rating, Lambsquarters
Method in brief: as §1

[7] = system: large (Lg) crabgrass (Digitaria sanguinalis); experiment: Test F pre-/postemergence plant response; settings: Digitaria sanguinalis, pre-emergence, scale 0 to 100, read-out: Plant response rating, Crabgrass, Large
Method in brief: as §1

[8] = system: morningglory (Ipomoea coccinea); experiment: Test F pre-/postemergence plant response; settings: Ipomoea, pre-emergence, scale 0 to 100, read-out: Plant response rating, Morningglory
Method in brief: as §1

[9] = system: sandbur (southern sandbur, Cenchrus echinatus); experiment: Test F pre-/postemergence plant response; settings: Cenchrus echinatus, scale 0 to 100, read-out: Plant response rating, Sandbur
Method in brief: as §1

soybean (Glycine max) = experiment: Test F pre-/postemergence plant response; settings: Glycine max, scale 0 to 100, read-out: Plant response rating, Soybean
Method in brief: as §1

[10] = system: surinam grass (Brachiaria decumbens); experiment: Test F pre-/postemergence plant response; settings: Urochloa decumbens, pre-emergence, scale 0 to 100, read-out: Plant response rating, Surinam Grass
Method in brief: as §1

[11] = system: waterhemp_RES1 (ALS & Triazine resistant common waterhemp, Amaranthus rudis); experiment: Test F postemergence plant response; settings: scale 0 to 100
Method in brief: (§2)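 Postemergence application to plants 2–18 cm tall (1- to 4-leaf stage), then held in greenhouse 14–21 days. Visual rating against untreated controls on a 0–100 scale (0 no effect, 100 complete control).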

[12] = system: waterhemp_RES2 (ALS & HPPD resistant common waterhemp, Amaranthus rudis); experiment: Test F postemergence plant response; settings: scale 0 to 100
Method in brief: as §2

[13] = post-emergence, 8 g ai/ha Postemergence
[14] = post-emergence, 16 g ai/ha Postemergence
[15] = post-emergence, 31 g ai/ha Postemergence
[16] = post-emergence, 62 g ai/ha Postemergence
[17] = post-emergence, 125 g ai/ha Postemergence
[18] = pre-emergence, 8 g ai/ha Preemergence
[19] = pre-emergence, 16 g ai/ha Preemergence
[20] = pre-emergence, 31 g ai/ha Preemergence
[21] = pre-emergence, 62 g ai/ha Preemergence
[22] = pre-emergence, 125 g ai/ha Preemergence

FC(F)c1cc(-c2ccccc2Oc2ncc(Br)cn2)no1 [Compound 62, 5-bromo-2-[2-[5-(difluoromethyl)-3-isoxazolyl]phenoxy]pyrimidine]
65%: pest or weed control at 125 g/ha [4, 17] | pest or weed control at 62 g/ha ([5]; 62 g ai/ha Preemergence) | plant injury at 62 g/ha (soybean (Glycine max); [16])
85: Plant response rating, Waterhemp_RES1 ([11]; 16 g ai/ha Postemergence)
40%: pest or weed control at 125 g/ha ([2]; pre-emergence, Preemergence) | plant injury at 31 g/ha (soybean (Glycine max); [15]) | plant injury at 125 g/ha (soybean (Glycine max); [22])
100%: pest or weed control at 62 g/ha [1, 21] | pest or weed control at 125 g/ha [1, 22] | pest or weed control at 125 g/ha ([6]; 125 g ai/ha, Preemergence)
100: Plant response rating, Waterhemp_RES1 ([11]; 31 g ai/ha Postemergence) | Plant response rating, Waterhemp_RES1 ([11]; 62 g ai/ha Postemergence) | Plant response rating, Waterhemp_RES1 ([11]; 125 g ai/ha Postemergence) | Plant response rating, Waterhemp_RES2 ([12]; 31 g ai/ha Postemergence) | Plant response rating, Waterhemp_RES2 ([12]; 62 g ai/ha Postemergence) | Plant response rating, Waterhemp_RES2 ([12]; 125 g ai/ha Postemergence)
20%: pest or weed control at 31 g/ha [3, 15] | pest or weed control at 62 g/ha [3, 16] | pest or weed control at 125 g/ha [3, 17] | plant injury at 16 g/ha (soybean (Glycine max); [14])
35%: pest or weed control at 31 g/ha ([5]; 31 g ai/ha Preemergence) | pest or weed control at 125 g/ha [9, 22]
90%: pest or weed control at 16 g/ha ([6]; 16 g ai/ha, Preemergence)
30%: pest or weed control at 62 g/ha [4, 21]
80%: pest or weed control at 125 g/ha [4, 22]
85%: plant injury at 125 g/ha (soybean (Glycine max); [17])
80: Plant response rating, Waterhemp_RES1 ([11]; 8 g ai/ha Postemergence) | Plant response rating, Waterhemp_RES2 ([12]; 8 g ai/ha Postemergence) | Plant response rating, Waterhemp_RES2 ([12]; 16 g ai/ha Postemergence)
70%: pest or weed control at 8 g/ha ([6]; 8 g ai/ha Preemergence) | pest or weed control at 62 g/ha ([7]; 62 g ai/ha Preemergence)
75%: pest or weed control at 31 g/ha [1, 20] | pest or weed control at 125 g/ha ([5]; 125 g ai/ha Preemergence)
0%: pest or weed control at 8 g/ha [1, 13] | pest or weed control at 16 g/ha [1, 14] | pest or weed control at 8 g/ha [1, 18] | pest or weed control at 16 g/ha [1, 19] | pest or weed control at 8 g/ha [2, 13] | pest or weed control at 16 g/ha ([2]; post-emergence, Postemergence) | pest or weed control at 31 g/ha ([2]; post-emergence, Postemergence) | pest or weed control at 8 g/ha [2, 18] | pest or weed control at 16 g/ha ([2]; pre-emergence, Preemergence) | pest or weed control at 31 g/ha ([2]; pre-emergence, Preemergence) | pest or weed control at 62 g/ha ([2]; pre-emergence, Preemergence) | pest or weed control at 8 g/ha [3, 18] | pest or weed control at 16 g/ha [3, 19] | pest or weed control at 31 g/ha [3, 20] | pest or weed control at 62 g/ha [3, 21] | pest or weed control at 8 g/ha [4, 13] | pest or weed control at 16 g/ha [4, 14] | pest or weed control at 8 g/ha [4, 18] | pest or weed control at 16 g/ha [4, 19] | pest or weed control at 31 g/ha [4, 20] | pest or weed control at 8 g/ha ([5]; 8 g ai/ha Preemergence) | pest or weed control at 8 g/ha ([7]; 8 g ai/ha Preemergence) | pest or weed control at 16 g/ha ([7]; 16 g ai/ha Preemergence) | pest or weed control at 8 g/ha ([8]; 8 g ai/ha Preemergence) | pest or weed control at 16 g/ha ([8]; 16 g ai/ha Preemergence) | pest or weed control at 31 g/ha ([8]; 31 g ai/ha Preemergence) | pest or weed control at 62 g/ha ([8]; Preemergence) | pest or weed control at 8 g/ha [9, 13] | pest or weed control at 16 g/ha [9, 14] | pest or weed control at 31 g/ha [9, 15] | pest or weed control at 62 g/ha [9, 16] | pest or weed control at 125 g/ha [9, 17] | pest or weed control at 8 g/ha [9, 18] | pest or weed control at 16 g/ha [9, 19] | pest or weed control at 31 g/ha [9, 20] | pest or weed control at 62 g/ha ([9]; pre-emergence, Preemergence) | plant injury at 8 g/ha (soybean (Glycine max); [18]) | plant injury at 16 g/ha (soybean (Glycine max); [19]) | plant injury at 31 g/ha (soybean (Glycine max); [20]) | pest or weed control at 8 g/ha ([10]; 8 g ai/ha Preemergence) | pest or weed control at 16 g/ha ([10]; 16 g ai/ha Preemergence)
50%: pest or weed control at 125 g/ha ([8]; 125 g ai/ha Preemergence)
95%: pest or weed control at 31 g/ha ([6]; 31 g ai/ha, Preemergence) | pest or weed control at 62 g/ha ([6]; Preemergence)
10%: pest or weed control at 31 g/ha [1, 15] | pest or weed control at 125 g/ha [1, 17] | pest or weed control at 62 g/ha ([2]; post-emergence, 62 g ai/ha, Postemergence) | pest or weed control at 125 g/ha ([2]; post-emergence, Postemergence) | pest or weed control at 8 g/ha [3, 13] | plant injury at 8 g/ha (soybean (Glycine max); [13]) | plant injury at 62 g/ha (soybean (Glycine max); pre-emergence, Preemergence) | pest or weed control at 125 g/ha ([10]; 125 g ai/ha Preemergence)
25%: pest or weed control at 125 g/ha [3, 22] | pest or weed control at 62 g/ha [4, 16] | pest or weed control at 31 g/ha ([7]; 31 g ai/ha Preemergence)
15%: pest or weed control at 62 g/ha [1, 16] | pest or weed control at 16 g/ha [3, 14] | pest or weed control at 16 g/ha ([5]; 16 g ai/ha Preemergence) | pest or weed control at 31 g/ha ([10]; 31 g ai/ha Preemergence) | pest or weed control at 62 g/ha ([10]; Preemergence)
5%: pest or weed control at 31 g/ha [4, 15]
98%: pest or weed control at 125 g/ha ([7]; 125 g ai/ha Preemergence)
